From patent publication US11008577B1 (priority 2017, dated 2021)
Where a SMILES comes first, the peptide text is derived from it. Bridges are numbered along the chain shown (N, C = ends). [ ]: non-standard residue; d: D form. The star is where a group is joined. Ileψ(thiazoline)Cys = CC[C@H](C)[C@H](N)C1=N[C@H](C(=O)*)CS1; dOrn = NCCC[C@@H](N)C(=O)O

Key:
[1] = tested on: high-lipid (HL) mutants; assay: Chemical sensitivity analysis, high-lipid mutants vs parent strain; format: cell-based, Rhodobacter sphaeroides; conditions: all HL mutants; 96-well plates, 30° C., 48 hours, OD 595 nm, normalized to DMSO control and parent strain; conc. per Table 4B
[2] = tested on: HLM04 and HLM07; assay: Chemical sensitivity analysis, Cluster B strains; format: cell-based, Rhodobacter sphaeroides; conditions: 48 hours, OD 595 nm, conc. per Table 4B
Procedure: (§1) Selected compounds (Tables 4A and 4B) were tested for their effects on growth of the parent strain to determine the highest doses that cause <30% growth reduction. Parent and high-lipid mutant strains were grown in the presence of the chemicals, or DMSO as a control, in 96-well plates at 30° C. with shaking for 48 hours. Final ODs were read at 595 nm on an Infinite® F500 microplate reader (Tecan). For each strain, final ODs for each drug treatment were first divided by the OD of the DMSO control for that strain to determine relative cell growth, and then the growth value for each treated culture was normalized by the parent strain growth under the same condition.

[3] = tested on: HLM01, HLM02 and HLM05; assay: Chemical sensitivity analysis, Cluster A strains; format: cell-based, Rhodobacter sphaeroides; conditions: 48 hours, OD 595 nm, conc. per Table 4B
[4] = tested on: HLM03; conditions: 48 hours, OD 595 nm, conc. per Table 4B
Procedure: as §1

CCCCCCCCCCCCOS(=O)(=O)[O-].[Na+] [SDS, sodium dodecyl sulfate]
growth of the high-lipid mutants compared to the parent strain (relative fitness) [1]: many or all of the high-lipid mutants showed increased sensitivity

CC[C@H](C)[C@H](N)C1=N[C@H](C(=O)N[C@@H](CC(C)C)C(=O)N[C@H](CCC(=O)O)C(=O)N[C@H](C(=O)N[C@H]2CCCCNC(=O)[C@H](CC(N)=O)NC(=O)[C@@H](CC(=O)O)NC(=O)[C@H](Cc3cnc[nH]3)NC(=O)[C@@H](Cc3ccccc3)NC(=O)[C@H]([C@@H](C)CC)NC(=O)[C@@H](CCCN)NC2=O)[C@@H](C)CC)CS1 [bacitracin] ({Ileψ(thiazoline)Cys}-L[dE]IK[dOrn]I[dF]H[dD]N; lactam 4-C)
sensitivity compared to the parent strain (relative growth, cluster ** in FIG. 3) [2]: increased sensitivity

CO/N=C(\C(=O)N[C@@H]1C(=O)N2C(C(=O)O)=C(CSc3nc(=O)c(=O)[nH]n3C)CS[C@H]12)c1csc(N)n1 [ceftriaxone]
sensitivity compared to the parent strain (relative growth, cluster ** in FIG. 3) [2]: increased sensitivity

CC[C@H]1OC(=O)[C@H](C)[C@@H](O[C@H]2C[C@@](C)(OC)[C@@H](O)[C@H](C)O2)[C@H](C)[C@@H](O[C@@H]2O[C@H](C)C[C@H](N(C)C)[C@H]2O)[C@](C)(OC)C[C@@H](C)C(=O)[C@H](C)[C@@H](O)[C@]1(C)O [clarithromycin]
sensitivity compared to the parent strain (relative growth, cluster * in FIG. 3) [3]: sensitive

CC[C@H]1OC(=O)[C@H](C)[C@@H](O[C@H]2C[C@@](C)(OC)[C@@H](O)[C@H](C)O2)[C@H](C)[C@@H](O[C@@H]2O[C@H](C)C[C@H](N(C)C)[C@H]2O)[C@](C)(O)C[C@@H](C)C(=O)[C@H](C)[C@@H](O)[C@]1(C)O [erythromycin]
sensitivity compared to the parent strain (relative growth, cluster * in FIG. 3) [3]: sensitive

OO [hydrogen peroxide]
sensitivity compared to the parent strain (relative growth) [4]: increased sensitivity

CO[C@H]1/C=C/O[C@@]2(C)Oc3c(C)c(O)c4c(O)c(c5c(nc6cc(C)ccn65)c4c3C2=O)NC(=O)/C(C)=C\C=C\[C@H](C)[C@H](O)[C@@H](C)[C@@H](O)[C@@H](C)[C@H](OC(C)=O)[C@@H]1C [rifaximin]
sensitivity compared to the parent strain (relative growth, cluster * in FIG. 3) [3]: sensitive

neomycin
growth of the high-lipid mutants compared to the parent strain (relative fitness) [1]: no growth difference
